Two compounds from patent US20100160207A1, “Feedback Prodrug” (University of Georgia Research Foundation, Inc., priority 2006, published 2010) can be followed below.

Molecules are shown by their SMILES.

Data set [1] relates to α-glucosidase. As to the kind of experiment: Negative enzyme control experiment, α-glucosidase. Format: biochemical. Particulars: 0.1 Unit, MES buffer pH 6.8, 37° C., 20 h. The procedure: (§1) Compounds 1 and 2 were subjected to an α-glucosidase, α-fucosidase and α-galactosidase.
(§2) Negative enzyme control experiments. A solution of compound 1 or 2 (0.004 mmol) and α-glucosidase, α-galactosidase or α-L-fucosidase (0.1 Unit) in MES buffer (0.05 M; pH 6.8 for α-glucosidase, pH 6.5 for α-galactosidase or pH 5.5 for α-L-fucosidase; 1 ml) was incubated at 37° C. for 20 h, after which the reaction mixture was freezing-dried, and the solid residue was analyzed by ^1H NMR spectrometry and mass spectrometry.

The nature of data set [2]: Treatment with cell lysate in the presence of swainsonine and kifunensine. Format: in vitro ADME.
Data set [3] has as its system α-L-fucosidase. As to the kind of experiment: Negative enzyme control experiment, α-L-fucosidase. Format: biochemical. As to conditions: 0.1 Unit, MES buffer pH 5.5, 37° C., 20 h. The procedure:
as §1, §2

Data set [4] is described as follows: Stability measurements in deuterated sodium acetate buffer by 1H NMR. Format: physicochemical. Particulars: 0.4 mM, sodium acetate buffer pH 4.0, 37° C., 6 days. The procedure: Stability measurements. A solution of compound 1 or 2 (0.4 mM) in deuterated sodium acetate buffer (100 mM; pH 4.0; 0.2 ml) in a NMR tube was incubated at 37° C. for 6 days. ^1H NMR spectra were recorded every day.

Data set [5] relates to α-galactosidase. As to the kind of experiment: Negative enzyme control experiment, α-galactosidase. As to conditions: 0.1 Unit, MES buffer pH 6.5, 37° C., 20 h. Format: biochemical. As for the experimental part:
as §1, §2

For data set [6], the target named is T1, human lysosomal mannosidase (HLM) (Homo sapiens, UniProt O00754).
T1 sequence (O00754 50-1011): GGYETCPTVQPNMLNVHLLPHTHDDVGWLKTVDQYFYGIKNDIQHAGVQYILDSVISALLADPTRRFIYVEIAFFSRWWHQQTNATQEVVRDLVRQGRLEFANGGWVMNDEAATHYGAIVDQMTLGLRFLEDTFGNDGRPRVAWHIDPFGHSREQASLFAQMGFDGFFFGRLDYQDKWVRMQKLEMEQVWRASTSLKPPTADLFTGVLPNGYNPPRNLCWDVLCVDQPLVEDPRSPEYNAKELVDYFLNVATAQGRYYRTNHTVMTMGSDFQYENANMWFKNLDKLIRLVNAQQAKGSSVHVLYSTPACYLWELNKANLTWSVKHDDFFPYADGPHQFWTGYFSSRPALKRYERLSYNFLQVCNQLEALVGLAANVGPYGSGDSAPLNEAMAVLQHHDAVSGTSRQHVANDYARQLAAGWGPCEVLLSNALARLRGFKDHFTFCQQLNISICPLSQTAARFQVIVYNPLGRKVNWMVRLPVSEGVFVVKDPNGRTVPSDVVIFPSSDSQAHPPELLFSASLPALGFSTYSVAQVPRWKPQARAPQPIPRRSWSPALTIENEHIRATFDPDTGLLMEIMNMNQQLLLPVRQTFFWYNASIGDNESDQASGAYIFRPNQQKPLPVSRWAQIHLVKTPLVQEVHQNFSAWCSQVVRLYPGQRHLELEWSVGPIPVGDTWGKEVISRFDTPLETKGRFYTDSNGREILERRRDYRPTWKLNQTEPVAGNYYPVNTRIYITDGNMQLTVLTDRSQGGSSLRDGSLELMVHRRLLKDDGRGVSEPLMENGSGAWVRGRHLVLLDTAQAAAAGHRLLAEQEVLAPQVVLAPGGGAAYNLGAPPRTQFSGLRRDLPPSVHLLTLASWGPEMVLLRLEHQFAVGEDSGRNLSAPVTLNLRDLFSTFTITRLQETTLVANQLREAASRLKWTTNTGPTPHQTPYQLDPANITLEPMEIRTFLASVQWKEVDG
As to the kind of experiment: Enzymatic cleavage of prodrugs by human lysosomal mannosidase monitored by 1H NMR. Format: biochemical. Particulars: HLM 20 mU, 80 nmol compound, sodium acetate buffer pH 5.6, 37° C. As for the experimental part:
HLM ([…]) was added to a solution of 2 (a) or 1 (b) ([…]) in a deuterated sodium acetate buffer (100 mM, pH, 5.6, 0.2 mL) and the enzymatic cleavage was monitored by ^1H NMR (600 MHz).
The enzymatic cleavage of 1 and 2 by human lysosomal mannosidase (HLM) was monitored by ^1H NMR (600 MHz) (Wilson et al., Org. Lett. 1999, 1, 443) Thus, HLM (20 mU) was added to a solution of 1 or 2 (80 nmol) dissolved in a deuterated sodium acetate buffer (100 mM, pH 5.6, 0.2 mL). The progress of the reaction was monitored by the integration of key signals of the starting material, the intermediate and final product. […] In this case, the released mannostatin A (5) inhibits HLM terminating further hydrolysis of 1. Mannostatin A is a potent inhibitor of retaining α-mannosidases (Ki=90 nM, HLM) (Li et al., Chem. Bio. Chem. 2004, 5, 1220) and thus the release of low concentrations of the active compound is sufficient to abolish enzyme activity.
Kinetic measurements. A solution of compound 1 or 2 (0.08 μmol) and human lysosomal mannosidase (HLM, 0.02 Unit) in deuterated sodium acetate buffer (0.1 M; pH 5.6; 0.2 ml) was incubated at 37° C., and ^1H NMR spectra (600 MHz) were recorded at different time intervals. Relevant signals were integrated to determine the rate of enzymatic hydrolysis, and the appearance of the intermediate and the final product.

The target of data set [7] is T2, drosophila Golgi α-mannosidase II (dGMII) (Drosophila melanogaster, UniProt Q24451).
T2 sequence (Q24451 1-1108): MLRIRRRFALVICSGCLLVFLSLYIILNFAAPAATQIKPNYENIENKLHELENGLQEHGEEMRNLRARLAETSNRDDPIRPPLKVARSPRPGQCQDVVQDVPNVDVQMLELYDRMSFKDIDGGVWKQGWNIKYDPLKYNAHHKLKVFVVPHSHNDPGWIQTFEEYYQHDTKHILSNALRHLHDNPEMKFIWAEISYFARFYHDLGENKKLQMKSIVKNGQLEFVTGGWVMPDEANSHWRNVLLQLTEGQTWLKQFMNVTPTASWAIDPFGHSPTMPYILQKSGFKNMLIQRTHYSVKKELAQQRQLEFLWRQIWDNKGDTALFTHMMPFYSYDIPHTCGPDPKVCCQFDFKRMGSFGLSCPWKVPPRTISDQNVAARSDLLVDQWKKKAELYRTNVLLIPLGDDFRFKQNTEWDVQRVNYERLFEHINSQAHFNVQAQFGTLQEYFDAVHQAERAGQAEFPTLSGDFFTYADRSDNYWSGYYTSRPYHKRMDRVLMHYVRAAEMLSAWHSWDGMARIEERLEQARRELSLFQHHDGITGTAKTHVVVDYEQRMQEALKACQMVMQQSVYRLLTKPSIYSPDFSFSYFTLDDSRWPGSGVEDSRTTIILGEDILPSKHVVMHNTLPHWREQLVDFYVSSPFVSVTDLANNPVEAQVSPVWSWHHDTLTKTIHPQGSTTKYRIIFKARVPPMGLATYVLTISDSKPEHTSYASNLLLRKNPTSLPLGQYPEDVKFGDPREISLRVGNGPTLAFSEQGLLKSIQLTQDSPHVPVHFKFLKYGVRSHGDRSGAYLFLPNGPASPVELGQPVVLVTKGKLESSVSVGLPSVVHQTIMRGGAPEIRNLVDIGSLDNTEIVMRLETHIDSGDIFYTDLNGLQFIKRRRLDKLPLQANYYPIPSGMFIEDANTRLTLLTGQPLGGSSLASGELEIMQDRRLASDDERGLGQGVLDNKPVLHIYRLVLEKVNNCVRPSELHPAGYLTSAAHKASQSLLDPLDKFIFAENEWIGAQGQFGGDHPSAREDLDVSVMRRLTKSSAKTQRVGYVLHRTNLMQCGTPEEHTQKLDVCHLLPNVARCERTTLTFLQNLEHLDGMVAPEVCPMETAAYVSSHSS
Put plainly: Affinity of N-benzyl mannostatin for Golgi α-mannosidase II. Format: binding. The text has this: The finding was ultimately explained by careful examination of the crystal structure of dGMII with the synthetic inhibitor; see Kawatkar et al., J. Am. Chem. Soc., 128, 8310-8319 (2006).

Regarding `CSC1C(O)C(O)C(O)C1NC(=O)OCc1ccc(O[C@H]2O[C@H](CO)[C@@H](O)[C@H](O)[C@@H]2O)cc1` (stereo partly drawn) [Compound 1, 1D-(1,2,3,4/5)-4-[4-(α-D-mannopyranosyloxy)-benzyloxycarbonyl]amino-5-(methylsulfanyl)cyclopentane-1,2,3-triol], in data set [1], the “decomposition by α-glucosidase” value is on record as “No decomposition of product was observed”. For the same compound, in data set [2], the “decomposition in cell lysate” value is reported as “did not lead to decomposition”. Also, in data set [3], the “decomposition by α-L-fucosidase” value is given as “No decomposition of product was observed”. The decomposition in buffer result in data set [4] is given as “No decomposition of product was observed”. Moreover, the “decomposition by α-galactosidase” value in data set [5] is “No decomposition of product was observed”. Besides, the “enzymatic hydrolysis of the prodrug by HLM” value in data set [6] is on record as “virtually no hydrolysis was observed”.
On to `CSC1C(O)C(O)C(O)C1NCc1ccccc1` (stereo not shown) [N-benzyl mannostatin], for which the “affinity compared with mannostatin A” value in data set [7] is recorded as “slightly reduced affinity”.
